# Data reported in patent publication US11046699B2, “Pyrazolo-pyrimidin-amino-cycloalkyl compounds and their therapeutic uses” (RAPT THERAPEUTICS, INC., priority 2018, dated 2021).
# pIC50: −log10 of the molar value.
# Molecular target: GCN2 (Homo sapiens, UniProt Q9P2K8)
# Assay: GCN2 enzymatic endpoint assay: phosphorylation of GFP-eIF2α measured by TR-FRET (Lanthascreen)
# Type: biochemical
# Conditions: tested as described in Example 77; compound and/or hydrochloride, dihydrochloride or trifluoroacetic acid salt; read-out: IC 50 Activity
# Outline: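 2 μM ATP, 80 nM GFP-eIF2α, RT, 90 min; EDTA stop. Tb-anti-phospho antibody TR-FRET read, 520/495 nm ratio.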
# Chain of GCN2 (Q9P2K8 whole entry): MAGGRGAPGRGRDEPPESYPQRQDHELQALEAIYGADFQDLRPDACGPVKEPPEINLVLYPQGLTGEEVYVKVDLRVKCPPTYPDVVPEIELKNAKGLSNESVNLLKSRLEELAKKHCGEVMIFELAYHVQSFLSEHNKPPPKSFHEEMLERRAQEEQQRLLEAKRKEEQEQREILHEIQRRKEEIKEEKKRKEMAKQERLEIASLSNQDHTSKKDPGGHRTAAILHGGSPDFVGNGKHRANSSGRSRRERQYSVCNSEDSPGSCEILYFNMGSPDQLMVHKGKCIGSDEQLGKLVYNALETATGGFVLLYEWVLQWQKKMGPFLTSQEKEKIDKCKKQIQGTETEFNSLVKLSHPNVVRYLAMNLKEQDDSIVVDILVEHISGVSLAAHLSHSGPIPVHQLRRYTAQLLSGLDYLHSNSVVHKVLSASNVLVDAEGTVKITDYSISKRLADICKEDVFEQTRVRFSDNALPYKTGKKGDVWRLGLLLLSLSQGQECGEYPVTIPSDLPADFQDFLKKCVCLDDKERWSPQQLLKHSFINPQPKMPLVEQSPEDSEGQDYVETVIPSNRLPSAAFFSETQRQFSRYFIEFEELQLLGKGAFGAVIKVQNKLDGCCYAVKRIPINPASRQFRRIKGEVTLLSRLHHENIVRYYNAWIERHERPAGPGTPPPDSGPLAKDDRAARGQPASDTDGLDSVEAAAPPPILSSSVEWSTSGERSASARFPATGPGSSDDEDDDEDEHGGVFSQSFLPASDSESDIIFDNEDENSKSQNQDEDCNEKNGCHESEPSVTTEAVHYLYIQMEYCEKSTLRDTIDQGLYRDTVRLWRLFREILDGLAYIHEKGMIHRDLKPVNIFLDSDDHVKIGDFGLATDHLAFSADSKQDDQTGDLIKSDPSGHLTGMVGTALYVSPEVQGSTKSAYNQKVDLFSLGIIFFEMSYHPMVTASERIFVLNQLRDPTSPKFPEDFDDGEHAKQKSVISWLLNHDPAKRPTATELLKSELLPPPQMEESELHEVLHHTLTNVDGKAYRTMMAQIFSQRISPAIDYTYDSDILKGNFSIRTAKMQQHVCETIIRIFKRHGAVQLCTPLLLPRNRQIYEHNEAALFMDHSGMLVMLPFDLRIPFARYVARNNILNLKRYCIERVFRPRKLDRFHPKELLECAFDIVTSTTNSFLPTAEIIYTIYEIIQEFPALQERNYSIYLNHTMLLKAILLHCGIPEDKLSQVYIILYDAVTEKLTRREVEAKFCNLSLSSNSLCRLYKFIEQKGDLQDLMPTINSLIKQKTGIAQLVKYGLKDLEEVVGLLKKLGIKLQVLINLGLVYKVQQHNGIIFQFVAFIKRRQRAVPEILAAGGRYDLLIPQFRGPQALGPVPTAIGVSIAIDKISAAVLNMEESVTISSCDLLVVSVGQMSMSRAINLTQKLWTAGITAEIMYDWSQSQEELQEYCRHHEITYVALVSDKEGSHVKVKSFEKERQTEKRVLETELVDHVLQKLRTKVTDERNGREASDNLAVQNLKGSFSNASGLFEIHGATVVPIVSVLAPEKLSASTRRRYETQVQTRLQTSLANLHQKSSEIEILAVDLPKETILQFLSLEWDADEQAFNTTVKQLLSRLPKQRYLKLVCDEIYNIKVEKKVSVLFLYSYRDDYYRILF
row,SMILES,pIC50
1,"CNC(=O)[C@]1(C)CC[C@@H](Nc2ncc3c(Br)nn(-c4cc(F)c5nc(C)cc(Cl)c5c4)c3n2)C1 [(1R,3R)-3-[[3-bromo-1-(4-chloro-8-fluoro-2-methyl-6-quinolyl)pyrazolo[3,4-d]pyrimidin-6-yl]amino]-N,1-dimethyl-cyclopentanecarboxamide]",6.70 to 7.60
2,"CNC(=O)[C@]1(C)CC[C@@H](Nc2ncc3c(Br)nn(-c4cc(C)c(C#N)c(C)c4)c3n2)C1 [(1R,3R)-3-[[3-bromo-1-(4-cyano-3,5-dimethyl-phenyl)pyrazolo[3,4-d]pyrimidin-6-yl]amino]-N,1-dimethyl-cyclopentanecarboxamide]",6.70 to 7.60
3,"CNC(=O)[C@]1(C)CC[C@@H](Nc2ncc3c(Br)nn(-c4ccc5nccc(P(C)(C)=O)c5c4)c3n2)C1 [(1R,3R)-3-[[3-bromo-1-(4-dimethyl-phosphoryl-6-quinolyl)pyrazolo[3,4-d]pyrimidin-6-yl]amino]-N,1-dimethyl-cyclopentanecarboxamide]",6.70 to 7.60
4,"CCN1C(=O)COc2cc(-n3nc(Br)c4cnc(N[C@@H]5CC[C@@](C)(C(=O)NC)C5)nc43)ccc21 [(1R,3R)-3-[[3-bromo-1-(4-ethyl-3-oxo-1,4-benzoxazin-7-yl)pyrazolo[3,4-d]pyrimidin-6-yl]amino]-N,1-dimethyl-cyclopentane-carboxamide]",6.70 to 7.60
5,"CNC(=O)[C@]1(C)CC[C@@H](Nc2ncc3c(Br)nn(-c4ccc(-n5ccnc5)cc4)c3n2)C1 [(1R,3R)-3-[[3-bromo-1-(4-imidazol-1-ylphenyl)pyrazolo[3,4-d]pyrimidin-6-yl]amino]-N,1-dimethyl-cyclo-pentanecarboxamide]",6.70 to 7.60
6,"CNC(=O)[C@]1(C)CC[C@@H](Nc2ncc3c(Br)nn(-c4ccc5c(c4)OCC(=O)N5C(C)C)c3n2)C1 [(1R,3R)-3-[[3-bromo-1-(4-isopropyl-3-oxo-1,4-benzoxazin-7-yl)pyrazolo[3,4-d]pyrimidin-6-yl]amino]-N,1-dimethyl-cyclopentanecarboxamide]",6.70 to 7.60
7,"CNC(=O)[C@]1(C)CC[C@@H](Nc2ncc3c(Br)nn(-c4ccc(-c5ccon5)cc4)c3n2)C1 [(1R,3R)-3-[[3-bromo-1-(4-isoxazol-3-ylphenyl)pyrazolo[3,4-d]pyrimidin-6-yl]amino]-N,1-dimethyl-cyclopentane-carboxamide]",6.70 to 7.60
8,"CNC(=O)[C@]1(C)CC[C@@H](Nc2ncc3c(Br)nn(-c4ccc5c(c4)SCC(=O)N5C)c3n2)C1 [(1R,3R)-3-[[3-bromo-1-(4-methyl-3-oxo-1,4-benzothiazin-7-yl)pyrazolo[3,4-d]pyrimidin-6-yl]amino]-N,1-dimethyl-cyclopentanecarboxamide]",6.70 to 7.60
9,"CNC(=O)[C@]1(C)CC[C@@H](Nc2ncc3c(Br)nn(-c4cnc5c(c4)OCC(=O)N5C)c3n2)C1 [(1R,3R)-3-[[3-bromo-1-(4-methyl-3-oxo-pyrido[3,2-b][1,4]oxazin-7-yl)pyrazolo [3,4-d]pyrimidin-6-yl]amino]-N,1-dimethyl-cyclopentanecarboxamide]",6.70 to 7.60
10,"CNC(=O)[C@]1(C)CC[C@@H](Nc2ncc3c(Br)nn(-c4ccc5nccc(=O)n5c4)c3n2)C1 [(1R,3R)-3-[[3-bromo-1-(4-oxopyrido [1,2-a]pyrimidin-7-yl)pyrazolo[3,4-d]pyrimidin-6-yl]amino]-N,1-dimethyl-cyclopentanecarboxamide]",6.70 to 7.60
11,"CNC(=O)[C@]1(C)CC[C@@H](Nc2ncc3c(Br)nn(-c4ccn5c(=O)ccnc5c4)c3n2)C1 [(1R,3R)-3-[[3-bromo-1-(4-oxopyrido[1,2-a]pyrimidin-8-yl)pyrazolo[3,4-d]pyrimidin-6-yl]amino]-N,1-dimethyl-cyclopentane-carboxamide]",6.70 to 7.60
12,"CNC(=O)[C@]1(CC(F)F)CC[C@@H](Nc2ncc3c(Br)nn(-c4ccc(-c5cnccn5)cc4)c3n2)C1 [(1R,3R)-3-[[3-bromo-1-(4-pyrazin-2-ylphenyl)pyrazolo[3,4-d]pyrimidin-6-yl]amino]-1-(2,2-difluoroethyl)-N-methyl-cyclopentanecarboxamide]",6.70 to 7.60
13,"CNC(=O)[C@]1(C)CC[C@@H](Nc2ncc3c(Br)nn(-c4ccc(-n5cccn5)cc4)c3n2)C1 [(1R,3R)-3-[[3-bromo-1-(4-pyrazol-1-ylphenyl)pyrazolo[3,4-d]pyrimidin-6-yl]amino]-N,1-dimethyl-cyclopentane-carboxamide]",6.70 to 7.60
14,"CNC(=O)[C@]1(C)CC[C@@H](Nc2ncc3c(Br)nn(-c4ccc(-c5cncnc5)cc4)c3n2)C1 [(1R,3R)-3-[[3-bromo-1-(4-pyrimidin-5-ylphenyl)pyrazolo[3,4-d]pyrimidin-6-yl]amino]-N,1-dimethyl-cyclopentane-carboxamide]",6.70 to 7.60
15,"CNC(=O)[C@]1(C)CC[C@@H](Nc2ncc3c(Br)nn(-c4ccc(-c5nccs5)cc4)c3n2)C1 [(1R,3R)-3-[[3-bromo-1-(4-thiazol-2-ylphenyl)pyrazolo[3,4-d]pyrimidin-6-yl]amino]-N,1-dimethyl-cyclopentane-carboxamide]",6.70 to 7.60
16,"CNC(=O)[C@]1(C)CC[C@@H](Nc2ncc3c(Br)nn(-c4ccc(-c5cncs5)cc4)c3n2)C1 [(1R,3R)-3-[[3-bromo-1-(4-thiazol-5-ylphenyl)pyrazolo[3,4-d]pyrimidin-6-yl]amino]-N,1-dimethyl-cyclopentane-carboxamide]",6.70 to 7.60

# Further lines, results first:
row,pIC50,SMILES
1,6.70 to 7.60,"CNC(=O)[C@]1(C)CC[C@@H](Nc2ncc3c(Br)nn(-c4ccc5nc(OC)ccc5c4)c3n2)C1 [(1R,3R)-3-[[3-bromo-1-(2-methoxy-6-quinolyl)pyrazolo[3,4-d]pyrimidin-6-yl]amino]-N,1-dimethyl-cyclopentane-carboxamide]"
2,6.70 to 7.60,"CNC(=O)[C@@H]1CC[C@@H](Nc2ncc3c(Br)nn(-c4ccc5nc(OC)ccc5c4)c3n2)C1 [(1R,3R)-3-[[3-bromo-1-(2-methoxy-6-quinolyl)pyrazolo[3,4-d]pyrimidin-6-yl]amino]-N-methyl-cyclopentanecarboxamide]"
3,> 7.60,"CNC(=O)[C@]1(C)CC[C@@H](Nc2ncc3c(Br)nn(-c4ccc5nc(OC)ncc5c4)c3n2)C1 [(1R,3R)-3-[[3-bromo-1-(2-methoxy-quinazolin-6-yl)pyrazolo[3,4-d]pyrimidin-6-yl]amino]-N,1-dimethyl-cyclopentane-carboxamide; 2,2,2-trifluoroacetic acid]"
4,6.70 to 7.60,"CNC(=O)[C@]1(C)CC[C@@H](Nc2ncc3c(Br)nn(-c4ccc5c(c4)CCN(S(C)(=O)=O)C5)c3n2)C1 [(1R,3R)-3-[[3-bromo-1-(2-methylsulfonyl-3,4-dihydro-1H-isoquinolin-6-yl)pyrazolo [3,4-d]pyrimidin-6-yl]amino]-N,1-dimethyl-cyclopentanecarboxamide]"
5,6.70 to 7.60,"CNC(=O)[C@]1(C)CC[C@@H](Nc2ncc3c(Br)nn(-c4ccc5c(c4)CN(S(C)(=O)=O)CC5)c3n2)C1 [(1R,3R)-3-[[3-bromo-1-(2-methylsulfonyl-3,4-dihydro-1H-isoquinolin-7-yl)pyrazolo [3,4-d]pyrimidin-6-yl]amino]-N,1-dimethyl-cyclopentanecarboxamide]"
6,6.70 to 7.60,"CNC(=O)[C@]1(C)CC[C@@H](Nc2ncc3c(Br)nn(-c4ccc5nc(N6CCOCC6)ncc5c4)c3n2)C1 [(1R,3R)-3-[[3-bromo-1-(2-morpholino-quinazolin-6-yl)pyrazolo[3,4-d]pyrimidin-6-yl]amino]-N,1-dimethyl-cyclopentane-carboxamide; 2,2,2-trifluoroacetic acid]"
7,6.70 to 7.60,"CNC(=O)[C@]1(C)CC[C@@H](Nc2ncc3c(Br)nn(-c4ccc5c(c4)NC(=O)COC5)c3n2)C1 [(1R,3R)-3-[[3-bromo-1-(2-oxo-1,5-dihydro-4,1-benzoxazepin-8-yl)pyrazolo[3,4-d]pyrimidin-6-yl]amino]-N,1-dimethyl-cyclopentanecarboxamide]"
8,6.70 to 7.60,"CNC(=O)[C@]1(C)CC[C@@H](Nc2ncc3c(Br)nn(-c4ccc5[nH]c(=O)ncc5c4)c3n2)C1 [(1R,3R)-3-[[3-bromo-1-(2-oxo-1H-quinazolin-6-yl)pyrazolo[3,4-d]pyrimidin-6-yl]amino]-N,1-dimethyl-cyclopentane-carboxamide; 2,2,2-trifluoroacetic acid]"
9,6.70 to 7.60,"CNC(=O)[C@]1(C)CC[C@@H](Nc2ncc3c(Br)nn(-c4ccc5c(c4)C(C)(C)CO5)c3n2)C1 [(1R,3R)-3-[[3-bromo-1-(3,3-dimethyl-2H-benzofuran-5-yl)pyrazolo[3,4-d]pyrimidin-6-yl]amino]-N,1-dimethyl-cyclopentane-carboxamide]"
10,6.70 to 7.60,"CNC(=O)[C@]1(C)CC[C@@H](Nc2ncc3c(Br)nn(-c4cc(Cl)cc(C#N)c4)c3n2)C1 [(1R,3R)-3-[[3-bromo-1-(3-chloro-5-cyano-phenyl)pyrazolo[3,4-d]pyrimidin-6-yl]amino]-N,1-dimethyl-cyclopentanecarboxamide]"
11,6.70 to 7.60,"CNC(=O)[C@@H]1CC[C@@H](Nc2ncc3c(Br)nn(-c4ccc5ncc(Cl)cc5c4)c3n2)C1 [(1R,3R)-3-[[3-bromo-1-(3-chloro-6-quinolyl)pyrazolo[3,4-d]pyrimidin-6-yl]amino]-N-methyl-cyclopentanecarboxamide]"
12,6.70 to 7.60,"CNC(=O)[C@]1(C)CC[C@@H](Nc2ncc3c(Br)nn(-c4ccc5c(c4)CNC(=O)C5)c3n2)C1 [(1R,3R)-3-[[3-bromo-1-(3-oxo-2,4-dihydro-1H-isoquinolin-7-yl)pyrazolo [3,4-d]pyrimidin-6-yl]amino]-N,1-dimethyl-cyclopentanecarboxamide]"
13,6.70 to 7.60,"CNC(=O)[C@]1(C)CC[C@@H](Nc2ncc3c(Br)nn(-c4ccc5c(c4)OCC(=O)N5)c3n2)C1 [(1R,3R)-3-[[3-bromo-1-(3-oxo-4H-1,4-benzoxazin-7-yl)pyrazolo[3,4-d]pyrimidin-6-yl]amino]-N,1-dimethyl-cyclopentanecarboxamide]"
14,> 7.60,"CNC(=O)[C@]1(C)CC[C@@H](Nc2ncc3c(Br)nn(-c4ccc5nccc(OC)c5c4)c3n2)C1 [(1R,3R)-3-[[3-bromo-1-(4-methoxy-6-quinolyl)pyrazolo[3,4-d]pyrimidin-6-yl]amino]-N,1-dimethyl-cyclopentanecarboxamide]"
